From patent US20100249058A1, “FEED ADDITIVE AND FEED” (IDEMITSU KOSAN CO., LTD., priority 2006, published 2010)

How the values were obtained:
Format in all cases: cell-based
Bacillus subtilis = experiment: Minimum inhibitory concentration (MIC) measurement; settings: 37° C., about 20 hours, aerobic
Procedure: (§1) Minimum inhibitory concentrations (MICs) of each of the bacteria shown in Table 1 were measured for the MEL and rhamnolipids by the following procedures.
(§2) The above-mentioned bacteria were precultured in a bouillon medium for sensitivity determination (NISSUI PHARMACEUTICAL CO., LTD.). The concentrations of the bacteria in the culture solutions were adjusted to about 1.0×10^5 to 10^6 CFU/ml with physiological saline, and the bacteria were inoculated into the measurement mediums. As the measurement mediums, a medium for sensitivity measurement (NISSUI PHARMACEUTICAL CO., LTD.) was used for Staphylococcus aureus, Staphylococcus epidermidis, and Bacillus subtilis, and a blood agar medium (heart infusion medium: NISSUI PHARMACEUTICAL CO., LTD., sheep sterile defibrinated blood: Kohjin Bio Co. Ltd.) was used for Streptococcus suis and Streptococcus bovis. Culture was performed at 37° C. for about 20 hours under aerobic conditions for Staphylococcus aureus, Staphylococcus epidermidis, and Bacillus subtilis or under 5% CO2 conditions for Streptococcus suis and Streptococcus bovis. After completion of culture, the MICs were measured.
(§3) The MEL crude purified product obtained in section <1> (purity 69%) was used as MEL, and the rhamnolipid crude purified product obtained in section <2> (purity 55%) was used as rhamnolipids. Meanwhile, for the purpose of comparison, MICs of sucrose ester (sucrose manodecanoate: manufactured by SIGMA-ALDRICH Japan K.K.), mannose (manufactured by Wako Pure Chemical Industries, Ltd.), and rhamnose (manufactured by SIGMA-ALDRICH Japan K.K.) were measured.

Staphylococcus aureus = experiment: Minimum inhibitory concentration (MIC) measurement; settings: 37° C., about 20 hours, aerobic
Procedure: as §1, §2, §3

[1] = system: Staphylococcus epidermidis; experiment: Minimum inhibitory concentration (MIC) measurement; settings: 37° C., about 20 hours, aerobic
Procedure: as §1, §2, §3

Streptococcus bovis = experiment: Minimum inhibitory concentration (MIC) measurement; settings: blood agar medium, 37° C., about 20 hours, 5% CO2
Procedure: as §1, §2, §3

Streptococcus suis = experiment: Minimum inhibitory concentration (MIC) measurement; settings: blood agar medium, 37° C., about 20 hours, 5% CO2
Procedure: as §1, §2, §3

[2] = system: Staphylococcus, Streptococcus, and Bacillus bacteria; experiment: Evaluation of antibiotic activities (summary over the tested bacteria); settings: result in words
Procedure: as §1
as §2, with “Culture was performed at 37° C. for about 20 hours under aerobic conditions for Staphylococcus aureus, Staphylococcus epidermidis, and Bacillus subtilis or under 5% CO2 conditions for Streptococcus suis and Streptococcus bovis.” left out
as §3

Compound	Minimum inhibitory concentration (MIC) (Bacillus subtilis)	Minimum inhibitory concentration (MIC) (Staphylococcus aureus)	Minimum inhibitory concentration (MIC) [1]	Minimum inhibitory concentration (MIC) (Streptococcus bovis)	Minimum inhibitory concentration (MIC) (Streptococcus suis)	antibiotic activities [2]
sucrose manodecanoate [Sucrose ester]	400	<1600	<1600	800	800	
C[C@H](O)[C@H](O)[C@@H](O)[C@@H](O)C=O [Rhamnose, rhamnose]	<1600	<1600	<1600	<1600	<1600	no antibiotic activities
